Laboratory results reported in patent US20090054392A1, “NAPHTHYLPYRIMIDINE, NAPHTHYLPYRAZINE AND NAPHTHYLPYRIDAZINE ANALOGS AND THEIR USE AS AGONISTS OF THE WNT-BETA-CATENIN CELLULAR MESSAGING SYSTEM” (Wyeth, priority 2007, published 2009).

System: Dkk1-LRP5-TCF-Luciferase
Test: Functional Dkk1-LRP5-TCF-Luciferase Assay in U2OS Cells
Settings: for fold induction at 2 µM / fold induction at 20 µM / EC50: Homo sapiens, U2OS; for fold induction at 2 µM: read-out: B = TCF ACTIVITY/DMSO CONTROL Fold induction @ 2.0 uM, 2.0 uM compound; for fold induction at 20 µM: read-out: C = TCF ACTIVITY/DMSO CONTROL Fold induction @ 20.0 uM, 20.0 uM compound; for A = MAX FOLD Induction/DMSO CONTROL: maximum fold induction over DMSO control

Row | A = MAX FOLD Induction/DMSO CONTROL | EC50 | C = TCF ACTIVITY/DMSO CONTROL Fold induction @ 20.0 uM (20.0 uM compound, 20 µM) | Compound | fold induction at 2 µM | fold induction at 20 µM
1 | 1.360 fold |  |  | c1ccc2cc(-c3ccnc(N[C@H]4CCNC4)n3)ccc2c1 [4-(2-naphthyl)-N-[(3S)-pyrrolidin-3-yl]pyrimidin-2-amine] | 2.84 | 0.89
2 | 6.810 fold | 3.74 µM |  | c1ccc2cc(-c3ccnc(NC[C@H]4CCNC4)n3)ccc2c1 [4-(2-naphthyl)-N-[(3S)-pyrrolidin-3-ylmethyl]pyrimidin-2-amine] |  | 
3 | 3.723 fold | 4.12 µM |  | c1ccc2cc(-c3ccnc(NC4CCNCC4)n3)ccc2c1 [4-(2-naphthyl)-N-piperidin-4-ylpyrimidin-2-amine] | 1.47 | 1.75
4 |  |  |  | CCCNc1nccc(-c2ccc3ccccc3c2)n1 [4-(2-naphthyl)-N-propylpyrimidin-2-amine] | 1.28 | 
5 |  |  |  | O=C(Cc1ccccc1)N1CCC(CNc2nccc(-c3ccc4ccccc4c3)n2)CC1 [4-(2-naphthyl)-N-{[1-(phenylacetyl)piperidin-4-yl]methyl}pyrimidin-2-amine] | 1.03 | 1.87
6 |  |  |  | O=C(N1CCCC1)N1CCC(CNc2nccc(-c3ccc4ccccc4c3)n2)CC1 [4-(2-naphthyl)-N-{[1-(pyrrolidin-1-ylcarbonyl)piperidin-4-yl]methyl}pyrimidin-2-amine] | 1.08 | 0.907
7 |  |  |  | O=C(N1CC(CNc2nccc(-c3ccc4ccccc4c3)n2)C1)C(F)(F)F [4-(2-naphthyl)-N-{[1-(trifluoroacetyl)azetidin-3-yl]methyl}pyrimidin-2-amine] | 1.5 | 
8 | 2.400 fold | 4.6 µM | 3.000 fold | c1ccc2cc(-c3ccnc(N4CCN(CCN5CCOCC5)CC4)n3)ccc2c1 [4-(2-{4-[4-(2-naphthyl)pyrimidin-2-yl]piperazin-1-yl}ethyl)morpholine] | 1.53 | 3.49
9 |  |  |  | c1ccc2cc(-c3ccnc(N4CCN(CCCN5CCOCC5)CC4)n3)ccc2c1 [4-(3-{4-[4-(2-naphthyl)pyrimidin-2-yl]piperazin-1-yl}propyl)morpholine] | 1.29 | 0.01
10 | 2.950 fold | 1.18 µM |  | NCC1(O)CCN(c2nccc(-c3ccc4ccccc4c3)n2)CC1 [4-(aminomethyl)-1-[4-(2-naphthyl)pyrimidin-2-yl]piperidin-4-ol] | 1.6 | 
11 | 2.380 fold | 4.98 µM |  | c1ccc2cc(-c3ccnc(N4CCC(CN5CCOCC5)CC4)n3)ccc2c1 [4-({1-[4-(2-naphthyl)pyrimidin-2-yl]piperidin-4-yl}methyl)morpholine] | 0.76 | 1.96
12 |  |  |  | O=C1CN(CC2CCN(c3nccc(-c4ccc5ccccc5c4)n3)CC2)CCN1 [4-({1-[4-(2-naphthyl)pyrimidin-2-yl]piperidin-4-yl}methyl)piperazin-2-one] | 1.16 | 1.49
13 | 2.990 fold | 4.8 µM |  | c1ccc2cc(-c3ccnc(N4CCC(CN5CCOCC5)C4)n3)ccc2c1 (stereo not drawn) [4-({1-[4-(2-naphthyl)pyrimidin-2-yl]pyrrolidin-3-yl}methyl)morpholine] | 1.07 | 3.1
14 |  |  |  | O=C1CN(CC2CCN(c3nccc(-c4ccc5ccccc5c4)n3)C2)CCN1 (stereo not drawn) [4-({1-[4-(2-naphthyl)pyrimidin-2-yl]pyrrolidin-3-yl}methyl)piperazin-2-one] | 1.23 | 0.46
15 |  |  |  | c1ccc2cc(-c3ccnc(N4CCC(CN5CCSCC5)C4)n3)ccc2c1 (stereo not drawn) [4-({1-[4-(2-naphthyl)pyrimidin-2-yl]pyrrolidin-3-yl}methyl)thiomorpholine] | 1.9 | 
16 | 1.180 fold |  |  | O=C(CN1CCN(c2nccc(-c3ccc4ccccc4c3)n2)CC1)N1CCOCC1 [4-({4-[4-(2-naphthyl)pyrimidin-2-yl]piperazin-1-yl}acetyl)morpholine] | 1.03 | 2.1
17 |  |  |  | NS(=O)(=O)c1ccc(CNc2nccc(-c3ccc4ccccc4c3)n2)cc1 [4-({[4-(2-naphthyl)pyrimidin-2-yl]amino}methyl)benzenesulfonamide] | 1.3 | 1.06
18 |  |  |  | NC(=O)N1CCC(CNc2nccc(-c3ccc4ccccc4c3)n2)CC1 [4-({[4-(2-naphthyl)pyrimidin-2-yl]amino}methyl)piperidine-1-carboxamide] | 0.88 | 1.58
19 |  |  |  | O=CN1CCCN(c2nccc(-c3ccc4ccccc4c3)n2)CC1 [4-[4-(2-naphthyl)pyrimidin-2-yl]-1,4-diazepane-1-carbaldehyde] | 0.87 | 1.88
20 | 2.050 fold | 0.32 µM |  | NC(=O)N1CCCN(c2nccc(-c3ccc4ccccc4c3)n2)CC1 [4-[4-(2-naphthyl)pyrimidin-2-yl]-1,4-diazepane-1-carboxamide] | 1.5 | 1.79
21 |  |  |  | N=C(N)N1CCN(c2nccc(-c3ccc4ccccc4c3)n2)CC1 [4-[4-(2-naphthyl)pyrimidin-2-yl]piperazine-1-carboximidamide] | 1.1 | 0.05
22 |  |  |  | O=C(N[C@@H]1CCN(c2nccc(-c3ccc4ccccc4c3)n2)C1)c1ccc(Cl)cc1 [4-chloro-N-{(3R)-1-[4-(2-naphthyl)pyrimidin-2-yl]pyrrolidin-3-yl}benzamide] | 1.68 | 
23 |  |  |  | O=C(N[C@H]1CCN(c2nccc(-c3ccc4ccccc4c3)n2)C1)c1ccc(Cl)cc1 [4-chloro-N-{(3S)-1-[4-(2-naphthyl)pyrimidin-2-yl]pyrrolidin-3-yl}benzamide] | 1.78 | 
24 |  |  |  | N#Cc1ccc(C(=O)NC2CCCC(Nc3nccc(-c4ccc5ccccc5c4)n3)C2)cc1 (stereo not drawn) [4-cyano-N-(3-{[4-(2-naphthyl)pyrimidin-2-yl]amino}cyclohexyl)benzamide] | 1.15 | 0.24
25 |  |  |  | N#Cc1ccc(C(=O)N[C@@H]2CCN(c3nccc(-c4ccc5ccccc5c4)n3)C2)cc1 [4-cyano-N-{(3R)-1-[4-(2-naphthyl)pyrimidin-2-yl]pyrrolidin-3-yl}benzamide] |  | 1.29
26 |  |  |  | N#Cc1ccc(C(=O)N[C@H]2CCN(c3nccc(-c4ccc5ccccc5c4)n3)C2)cc1 [4-cyano-N-{(3S)-1-[4-(2-naphthyl)pyrimidin-2-yl]pyrrolidin-3-yl}benzamide] | 0.84 | 1.24
27 |  |  |  | CC1(O)CCN(c2nccc(-c3ccc4ccccc4c3)n2)CC1 [4-methyl-1-[4-(2-naphthyl)pyrimidin-2-yl]piperidin-4-ol] |  | 1.09
28 | 1.230 fold |  |  | Cc1ccc(S(=O)(=O)N[C@H]2CC[C@H](Nc3nccc(-c4ccc5ccccc5c4)n3)CC2)cc1 [4-methyl-N-(trans-4-{[4-(2-naphthyl)pyrimidin-2-yl]amino}cyclohexyl)benzenesulfonamide] | 1.78 | 1.13
29 |  |  |  | Cc1ccc(S(=O)(=O)NCC2CN(c3nccc(-c4ccc5ccccc5c4)n3)C2)cc1 [4-methyl-N-({1-[4-(2-naphthyl)pyrimidin-2-yl]azetidin-3-yl}methyl)benzenesulfonamide] | 1.16 | 0.28
